What was measured:
[1] = Plasma hydrolysis of (−) CPTA prodrug esters in human plasma (Example 21); type: in vitro ADME; settings: human plasma (heparinized, pooled), 125 or 250 μM, 37° C., hydrolysis to (−) CPTA; read-out: Plasma T1/2 (converted)
Description: This example illustrates the plasma hydrolysis of various prodrug esters of the (S)-enantiomer of CPTA at physiological conditions. Hydrolysis was monitored and analyzed by HPLC. The hydrolytic product was identified by comparison to authentic (−) CPTA and the hydrolytic rates were calculated. [drawing 83]
Human plasma (heparinized, pooled) was obtained from Golden West Biololgicals Inc., USA; Plasma incubation was carried out in a Water Bath Shaker (New Brunswick Scientific, Inc.); Sample analyses were carried out on Agilent HPLC 1100 system.
Prepare 31.25 or 62.5 mM prodrug stock solutions in 100% DMSO. Add 4 μL of 31.25 or 62.5 mM prodrug stock solutions to 1.0 mL of plasma in a microcentrifuge tube to make plasma concentration at 125 or 250 μM, mix gently. Aliquots of 50 μL are transferred to 15 microcentrifuge vials. Three samples are immediately removed to a freezer at about −80° C. (0 time point), the remaining samples are incubated in a bath shaker at 37° C. Three samples are removed at 30 min, 2, 7 and 24 hr, and stored at −80° C. until analysis. The relative concentrations of MBX-compounds are determined by HPLC methods. If there are enough data points, the hydrolytic rate can be calculated using WinNonlin software. Table 10 provides a summary of plasma half-lives of some pro-drug esters and FIGS. 20A-20G illustrate the hydrolytic curves of those prodrug esters.

C57BL/6J ob/ob mice = assay: Glucose lowering activity of halofenate analogs in ob/ob mice (Example 12); type: in vivo; settings: for Predose Glucose: baseline before dosing

C#CCOC(=O)C(Oc1cccc(C(F)(F)F)c1)c1ccc(Cl)cc1 (single isomer, unassigned; (-)) [Compound 19.3, (−)-propargyl 4-chloro-alpha-(3-trifluoromethylphenoxy)benzeneacetate]
half-life [1]: < 1 h

CCNC(=O)NCCOC(=O)C(Oc1cccc(C(F)(F)F)c1)c1ccc(Cl)cc1 (single isomer, unassigned) [Compound 19.22]
half-life [1]: < 1 h

O=C(OCC(=O)N1CCC1)C(Oc1cccc(C(F)(F)F)c1)c1ccc(Cl)cc1 (single isomer, unassigned) [Compound 19.13]
half-life [1]: < 0.5 h

CC(=O)NCCOC(=O)C(Oc1cccc(C(F)(F)F)c1)c1ccc(F)cc1 (racemic) [(±)Analog 14]
6 hours Glucose (C57BL/6J ob/ob mice; 125 mg/kg oral once a day): 328.9 ± 34.1 mg/dL
30 hours Glucose (C57BL/6J ob/ob mice; 125 mg/kg oral once a day): 267.0 ± 21.3 mg/dL
54 hours Glucose (C57BL/6J ob/ob mice; 125 mg/kg oral once a day): 293.0 ± 29.4 mg/dL
Predose Glucose (C57BL/6J ob/ob mice; 125 mg/kg group): 361.0 ± 17.1 mg/dL

CC(=O)NCCOC(=O)C(Oc1cccc(C(F)(F)F)c1)c1ccc(Br)cc1 (single isomer, unassigned; (-)) [(−)Analog 29]
Predose Glucose (C57BL/6J ob/ob mice; 150 mg/kg group): 372.2 ± 17.1 mg/dL
6 hours Glucose (C57BL/6J ob/ob mice; single oral dose 150 mg/kg): 333.5 ± 16.1 mg/dL
time points with significantly reduced plasma glucose (C57BL/6J ob/ob mice; single oral dose 150 mg/kg): 6 h

COC(=O)C1CCCN1C(=O)COC(=O)C(Oc1cccc(C(F)(F)F)c1)c1ccc(Cl)cc1 (single isomer, unassigned) [Compound 19.19]
half-life [1]: < 0.5 h

CCCCOC(=O)C(Oc1cccc(C(F)(F)F)c1)c1ccc(Cl)cc1 (racemic) [(±)Analog 33]
6 hours Glucose (C57BL/6J ob/ob mice; 125 mg/kg oral once a day): 227.5 ± 13.2 mg/dL
30 hours Glucose (C57BL/6J ob/ob mice; 125 mg/kg oral once a day): 298.0 ± 15.3 mg/dL
54 hours Glucose (C57BL/6J ob/ob mice; 125 mg/kg oral once a day): 286.6 ± 9.9 mg/dL
Predose Glucose (C57BL/6J ob/ob mice; 125 mg/kg group): 292.0 ± 19.1 mg/dL

CCOC(=O)COC(=O)C(Oc1cccc(C(F)(F)F)c1)c1ccc(Cl)cc1 (single isomer, unassigned) [Compound 19.12]
half-life [1]: < 0.5 h

O=C(OCc1ccccc1)C(Oc1cccc(C(F)(F)F)c1)c1ccc(Cl)cc1 (single isomer, unassigned; (-)) [Compound 19.6, (−)-benzyl 4-chloro-alpha-(3-trifluoromethylphenoxy)benzeneacetate]
half-life [1]: 6.3 h

O=C(NCCOC(=O)C(Oc1cccc(C(F)(F)F)c1)c1ccc(Cl)cc1)OCc1ccccc1 (single isomer, unassigned) [Compound 19.21]
half-life [1]: < 2 h

O=C(NCCOC(=O)C(Oc1cccc(C(F)(F)F)c1)c1ccc(Cl)cc1)c1ccccc1 (single isomer, unassigned) [Compound 19.4]
half-life [1]: < 1 h

CCOC(=O)C(Oc1cccc(C(F)(F)F)c1)c1ccc(Cl)cc1 (single isomer, unassigned) [Compound 19.7]
half-life [1]: < 7 h

NCC(=O)OCCOC(=O)C(Oc1cccc(C(F)(F)F)c1)c1ccc(Cl)cc1 (single isomer, unassigned) [Compound 19.28]
half-life [1]: < 0.5 h

O=C(NCCOC(=O)C(Oc1cccc(C(F)(F)F)c1)c1ccc(Cl)cc1)c1ccccc1 (single isomer, unassigned; (-)) [(−)Analog 36]
Predose Glucose (C57BL/6J ob/ob mice; 150 mg/kg group): 373.2 ± 15.5 mg/dL
6 hours Glucose (C57BL/6J ob/ob mice; single oral dose 150 mg/kg): 281.1 ± 18.2 mg/dL
time points with significantly reduced plasma glucose (C57BL/6J ob/ob mice; single oral dose 150 mg/kg): 6 h

COCCOC(=O)C(Oc1cccc(C(F)(F)F)c1)c1ccc(Cl)cc1 (single isomer, unassigned; (-)) [Compound 19.8, (−)-2-methoxyethyl 4-chloro-alpha-(3-trifluoromethylphenoxy)benzeneacetate]
half-life [1]: < 2 h

CN(C)C(=O)COC(=O)C(Oc1cccc(C(F)(F)F)c1)c1ccc(Cl)cc1 (single isomer, unassigned; (-)) [(−)Analog 38]
Predose Glucose (C57BL/6J ob/ob mice; 150 mg/kg group): 373.4 ± 16.1 mg/dL
6 hours Glucose (C57BL/6J ob/ob mice; single oral dose 150 mg/kg): 251.2 ± 23.6 mg/dL
time points with significantly reduced plasma glucose (C57BL/6J ob/ob mice; single oral dose 150 mg/kg): 6 h

O=C(NCCOC(=O)C(Oc1cccc(C(F)(F)F)c1)c1ccc(Cl)cc1)c1ccccc1 (racemic) [(±)Analog 36]
6 hours Glucose (C57BL/6J ob/ob mice; 125 mg/kg oral once a day): 300.5 ± 27.3 mg/dL
30 hours Glucose (C57BL/6J ob/ob mice; 125 mg/kg oral once a day): 249.7 ± 8.6 mg/dL
54 hours Glucose (C57BL/6J ob/ob mice; 125 mg/kg oral once a day): 272.2 ± 18.4 mg/dL
Predose Glucose (C57BL/6J ob/ob mice; 125 mg/kg group): 329.7 ± 17.6 mg/dL

CC(C)C(=O)NCCOC(=O)C(Oc1cccc(C(F)(F)F)c1)c1ccc(Cl)cc1 (single isomer, unassigned) [Compound 19.15]
half-life [1]: < 1 h

O=C(OCc1cccnc1)C(Oc1cccc(C(F)(F)F)c1)c1ccc(Cl)cc1 (single isomer, unassigned) [Compound 19.18]
half-life [1]: < 1 h

Cc1oc(=O)oc1COC(=O)C(Oc1cccc(C(F)(F)F)c1)c1ccc(Cl)cc1 (single isomer, unassigned) [Compound 19.24]
half-life [1]: < 0.5 h
